Type in all cases: binding
One assay deals with T1, nfa18080 (Nocardia farcinica, UniProt Q5YYT7).
T1 construct: gene NFA_18080; full-length (density starts at residue 5)
T1 sequence (Q5YYT7 1-144): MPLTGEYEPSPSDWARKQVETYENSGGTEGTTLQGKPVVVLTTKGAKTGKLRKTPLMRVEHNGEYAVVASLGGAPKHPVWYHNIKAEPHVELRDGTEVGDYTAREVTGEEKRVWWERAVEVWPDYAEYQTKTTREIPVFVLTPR
Put plainly: crystal structure, […] Å.

The target in a further assay is T2, nfa33440 (Nocardia farcinica, UniProt Q5YUF0).
T2 construct: gene NFA_33440; full-length (density starting at residue 6)
T2 sequence (Q5YUF0 1-147): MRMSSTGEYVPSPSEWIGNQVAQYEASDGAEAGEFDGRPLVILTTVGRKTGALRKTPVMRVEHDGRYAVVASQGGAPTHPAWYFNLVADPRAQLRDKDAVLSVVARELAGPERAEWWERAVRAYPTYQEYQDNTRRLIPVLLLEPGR
Briefly: cocrystal structure, […] Å; HSQC NMR.

Assay [1] has as its target T3, Ddn (deazaflavin-dependent nitroreductase, Rv3547) (Mycobacterium tuberculosis, UniProt P9WP15). Briefly: cocrystal structures (Holo-1 […] Å, Holo-2 […] Å); Trp fluorescence quenching Kd; HSQC NMR. Further details: […]; full-length Ddn / MBP-Ddn fusion (Kd).
Assay [2] concerns the target T3, Ddn (deazaflavin-dependent nitroreductase, Rv3547). Briefly: intrinsic tryptophan fluorescence quenching; also steady-state kinetics (KM […]). On the set-up: full-length Ddn / MBP-Ddn fusion.

T3 sequence (P9WP15 whole entry, the tested form may be a part): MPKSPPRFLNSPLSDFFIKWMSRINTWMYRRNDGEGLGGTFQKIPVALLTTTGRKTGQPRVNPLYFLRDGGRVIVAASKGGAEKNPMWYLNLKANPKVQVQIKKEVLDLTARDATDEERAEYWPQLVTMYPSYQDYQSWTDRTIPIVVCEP

By Kd is commonly meant a measure of binding affinity in units of concentration. As to `C[C@H](OP(=O)(O)OC[C@@H](O)[C@@H](O)[C@@H](O)Cn1c2nc(=O)[nH]c(=O)c-2cc2ccc(O)cc21)C(=O)N[C@@H](CCC(=O)N[C@@H](CCC(=O)O)C(=O)O)C(=O)O` [F420], on nfa18080, the “crystal structure, 1.50 Å” value was “nfa18080 from N. farcinica, was solved by X-ray crystallography in the presence of F420”. Also, the “cocrystal structure, 1.80 Å; HSQC NMR” value at nfa33440 was “a cocrystal of nfa33440 with F420 confirmed that the overall structure and coenzyme binding are very similar”. Moreover, the Kd in assay [1] amounted to 1 µM.

For the molecule `O=[N+]([O-])c1cn2c(n1)OC[C@@H](OCc1ccc(OC(F)(F)F)cc1)C2` [PA-824, (6S)-2-nitro-6-[4-(trifluoromethoxy)benzyl]oxy-6,7-dihydro-5H-imidazo[2,1-b][1,3]oxazine], the affinity in assay [2], expressed as Kd, was 31 µM. That is a double-digit micromolar value.

The record behind these values is publication PMC3267046 (Structure(London, England:1993), 2012).
